Legend:
Nitric oxide synthase 1 [1] = biological target: Nitric oxide synthase 1 (Rattus norvegicus, UniProt P29476)
Nitric oxide synthase 1 [2] = biological target: Nitric oxide synthase 1 (Homo sapiens, UniProt P29475)
Nitric oxide synthase 3 = biological target: T1, Nitric oxide synthase 3 (Homo sapiens, UniProt P29474)
T1 sequence (P29474 whole entry): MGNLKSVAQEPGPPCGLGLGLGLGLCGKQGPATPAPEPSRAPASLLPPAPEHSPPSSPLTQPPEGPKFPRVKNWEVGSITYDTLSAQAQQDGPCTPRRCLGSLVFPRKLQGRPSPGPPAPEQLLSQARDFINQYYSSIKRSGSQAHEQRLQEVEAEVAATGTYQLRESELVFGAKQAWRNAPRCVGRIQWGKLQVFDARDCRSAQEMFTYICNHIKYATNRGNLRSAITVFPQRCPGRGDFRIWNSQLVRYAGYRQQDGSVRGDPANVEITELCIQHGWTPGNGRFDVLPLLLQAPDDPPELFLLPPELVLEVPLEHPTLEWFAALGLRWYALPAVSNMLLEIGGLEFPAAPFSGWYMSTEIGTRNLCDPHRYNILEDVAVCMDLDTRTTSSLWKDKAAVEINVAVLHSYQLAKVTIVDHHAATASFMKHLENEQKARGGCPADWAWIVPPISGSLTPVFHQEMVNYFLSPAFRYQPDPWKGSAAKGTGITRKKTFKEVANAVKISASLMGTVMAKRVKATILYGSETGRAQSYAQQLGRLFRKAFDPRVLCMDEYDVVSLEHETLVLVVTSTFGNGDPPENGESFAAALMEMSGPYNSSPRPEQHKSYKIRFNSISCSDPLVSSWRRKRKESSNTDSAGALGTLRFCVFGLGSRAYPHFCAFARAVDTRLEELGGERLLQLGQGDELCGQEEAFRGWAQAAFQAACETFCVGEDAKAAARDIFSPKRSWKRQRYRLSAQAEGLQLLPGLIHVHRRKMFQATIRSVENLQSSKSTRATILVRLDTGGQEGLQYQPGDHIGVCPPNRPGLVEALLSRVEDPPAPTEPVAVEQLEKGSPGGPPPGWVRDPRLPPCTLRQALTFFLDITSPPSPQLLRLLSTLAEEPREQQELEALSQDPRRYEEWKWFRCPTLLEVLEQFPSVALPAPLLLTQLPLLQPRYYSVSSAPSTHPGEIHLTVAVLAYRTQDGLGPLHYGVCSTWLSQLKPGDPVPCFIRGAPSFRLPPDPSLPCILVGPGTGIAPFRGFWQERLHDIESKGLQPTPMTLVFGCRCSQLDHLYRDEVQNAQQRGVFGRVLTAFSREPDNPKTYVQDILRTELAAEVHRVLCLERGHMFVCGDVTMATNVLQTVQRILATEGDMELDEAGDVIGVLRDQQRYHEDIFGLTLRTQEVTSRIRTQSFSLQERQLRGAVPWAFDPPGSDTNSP

[3] = biological target: Nitric oxide synthase, inducible (Homo sapiens, UniProt P35228)
Chain of Nitric oxide synthase, inducible (P35228 whole entry): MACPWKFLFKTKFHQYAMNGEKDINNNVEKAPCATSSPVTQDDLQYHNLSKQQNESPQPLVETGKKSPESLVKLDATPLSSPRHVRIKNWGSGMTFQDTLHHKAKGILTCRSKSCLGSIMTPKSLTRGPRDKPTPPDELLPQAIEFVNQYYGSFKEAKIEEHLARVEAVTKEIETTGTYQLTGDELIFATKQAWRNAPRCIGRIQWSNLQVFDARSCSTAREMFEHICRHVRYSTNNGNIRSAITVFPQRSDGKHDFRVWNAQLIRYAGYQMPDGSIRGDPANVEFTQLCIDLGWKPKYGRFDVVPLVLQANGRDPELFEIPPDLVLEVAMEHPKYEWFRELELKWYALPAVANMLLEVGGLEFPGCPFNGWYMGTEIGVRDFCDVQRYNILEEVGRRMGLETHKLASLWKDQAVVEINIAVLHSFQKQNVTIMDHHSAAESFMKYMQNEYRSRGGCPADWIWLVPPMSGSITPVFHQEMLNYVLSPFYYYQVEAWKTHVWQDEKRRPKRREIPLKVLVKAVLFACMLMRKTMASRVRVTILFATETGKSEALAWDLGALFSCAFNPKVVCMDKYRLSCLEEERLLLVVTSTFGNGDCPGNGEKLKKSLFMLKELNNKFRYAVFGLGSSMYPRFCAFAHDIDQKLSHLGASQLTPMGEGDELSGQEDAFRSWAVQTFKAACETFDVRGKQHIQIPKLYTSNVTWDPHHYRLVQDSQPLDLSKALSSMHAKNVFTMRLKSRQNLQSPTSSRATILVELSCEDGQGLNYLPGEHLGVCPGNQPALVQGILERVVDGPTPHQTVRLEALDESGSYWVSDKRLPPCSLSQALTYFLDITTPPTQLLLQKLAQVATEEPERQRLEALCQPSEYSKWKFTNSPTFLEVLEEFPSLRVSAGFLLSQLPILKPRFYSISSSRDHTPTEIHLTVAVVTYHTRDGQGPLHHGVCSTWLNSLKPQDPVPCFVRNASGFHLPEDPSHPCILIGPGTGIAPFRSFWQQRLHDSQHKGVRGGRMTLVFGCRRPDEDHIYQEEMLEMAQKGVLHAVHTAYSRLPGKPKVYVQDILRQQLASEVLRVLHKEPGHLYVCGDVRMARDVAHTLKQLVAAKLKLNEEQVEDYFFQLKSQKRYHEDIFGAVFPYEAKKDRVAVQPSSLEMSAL

Nitric oxide synthase 1 [4] = biological target: Nitric oxide synthase 1 (Rattus norvegicus, UniProt P29476, D597N)
Chain of Nitric oxide synthase 1 (Rattus norvegicus, UniProt P29476, D597N) (P29476 whole entry D597N): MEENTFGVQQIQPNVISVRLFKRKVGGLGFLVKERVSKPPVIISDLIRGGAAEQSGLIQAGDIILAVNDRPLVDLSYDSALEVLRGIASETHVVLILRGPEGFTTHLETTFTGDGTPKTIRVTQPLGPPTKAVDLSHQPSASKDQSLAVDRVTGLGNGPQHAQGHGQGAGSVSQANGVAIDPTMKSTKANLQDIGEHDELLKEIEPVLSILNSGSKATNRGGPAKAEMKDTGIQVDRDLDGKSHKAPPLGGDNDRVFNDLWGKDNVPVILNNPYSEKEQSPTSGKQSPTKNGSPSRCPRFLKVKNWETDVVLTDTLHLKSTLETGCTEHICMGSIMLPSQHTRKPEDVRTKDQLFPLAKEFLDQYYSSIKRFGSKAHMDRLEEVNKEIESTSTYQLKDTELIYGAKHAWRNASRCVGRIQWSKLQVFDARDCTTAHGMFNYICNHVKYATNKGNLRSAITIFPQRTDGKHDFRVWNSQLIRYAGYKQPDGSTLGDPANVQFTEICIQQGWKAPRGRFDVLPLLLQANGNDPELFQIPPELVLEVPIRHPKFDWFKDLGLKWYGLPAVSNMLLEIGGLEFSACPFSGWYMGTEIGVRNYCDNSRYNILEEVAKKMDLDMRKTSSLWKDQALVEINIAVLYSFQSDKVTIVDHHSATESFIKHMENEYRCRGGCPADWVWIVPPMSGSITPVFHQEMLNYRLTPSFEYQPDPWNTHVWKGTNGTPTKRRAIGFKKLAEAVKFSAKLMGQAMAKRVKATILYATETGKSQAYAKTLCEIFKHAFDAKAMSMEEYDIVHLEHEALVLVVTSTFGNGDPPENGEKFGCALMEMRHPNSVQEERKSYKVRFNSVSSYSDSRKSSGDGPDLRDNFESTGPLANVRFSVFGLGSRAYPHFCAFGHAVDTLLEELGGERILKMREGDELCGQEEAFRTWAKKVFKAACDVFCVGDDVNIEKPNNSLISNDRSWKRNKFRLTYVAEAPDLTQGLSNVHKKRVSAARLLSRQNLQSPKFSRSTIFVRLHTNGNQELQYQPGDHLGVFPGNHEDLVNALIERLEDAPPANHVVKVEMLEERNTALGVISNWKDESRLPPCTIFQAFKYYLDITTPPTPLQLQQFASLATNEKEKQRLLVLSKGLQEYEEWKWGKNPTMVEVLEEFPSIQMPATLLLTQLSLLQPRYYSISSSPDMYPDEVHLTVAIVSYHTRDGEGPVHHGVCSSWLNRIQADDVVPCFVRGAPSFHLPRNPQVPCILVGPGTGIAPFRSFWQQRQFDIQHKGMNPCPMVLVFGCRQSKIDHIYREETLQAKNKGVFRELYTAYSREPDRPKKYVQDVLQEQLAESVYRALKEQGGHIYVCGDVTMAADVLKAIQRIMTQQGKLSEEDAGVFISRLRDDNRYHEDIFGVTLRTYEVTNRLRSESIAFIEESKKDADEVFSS

in vitro [5] = conditions: human, liver microsomes
in vitro [6] = conditions: human, liver microsomes, pH 7.4
in vitro [7] = conditions: human, liver microsomes; remark: listed apart in the source
in vitro [8] = conditions: human, liver microsomes; remark: listed apart in the source

Chain of Nitric oxide synthase 1 (Rattus norvegicus, UniProt P29476) (P29476 whole entry): as the sequence (P29476 whole entry D597N) above, with N597D counted along it
Chain of Nitric oxide synthase 1 (Homo sapiens, UniProt P29475) (P29475 whole entry): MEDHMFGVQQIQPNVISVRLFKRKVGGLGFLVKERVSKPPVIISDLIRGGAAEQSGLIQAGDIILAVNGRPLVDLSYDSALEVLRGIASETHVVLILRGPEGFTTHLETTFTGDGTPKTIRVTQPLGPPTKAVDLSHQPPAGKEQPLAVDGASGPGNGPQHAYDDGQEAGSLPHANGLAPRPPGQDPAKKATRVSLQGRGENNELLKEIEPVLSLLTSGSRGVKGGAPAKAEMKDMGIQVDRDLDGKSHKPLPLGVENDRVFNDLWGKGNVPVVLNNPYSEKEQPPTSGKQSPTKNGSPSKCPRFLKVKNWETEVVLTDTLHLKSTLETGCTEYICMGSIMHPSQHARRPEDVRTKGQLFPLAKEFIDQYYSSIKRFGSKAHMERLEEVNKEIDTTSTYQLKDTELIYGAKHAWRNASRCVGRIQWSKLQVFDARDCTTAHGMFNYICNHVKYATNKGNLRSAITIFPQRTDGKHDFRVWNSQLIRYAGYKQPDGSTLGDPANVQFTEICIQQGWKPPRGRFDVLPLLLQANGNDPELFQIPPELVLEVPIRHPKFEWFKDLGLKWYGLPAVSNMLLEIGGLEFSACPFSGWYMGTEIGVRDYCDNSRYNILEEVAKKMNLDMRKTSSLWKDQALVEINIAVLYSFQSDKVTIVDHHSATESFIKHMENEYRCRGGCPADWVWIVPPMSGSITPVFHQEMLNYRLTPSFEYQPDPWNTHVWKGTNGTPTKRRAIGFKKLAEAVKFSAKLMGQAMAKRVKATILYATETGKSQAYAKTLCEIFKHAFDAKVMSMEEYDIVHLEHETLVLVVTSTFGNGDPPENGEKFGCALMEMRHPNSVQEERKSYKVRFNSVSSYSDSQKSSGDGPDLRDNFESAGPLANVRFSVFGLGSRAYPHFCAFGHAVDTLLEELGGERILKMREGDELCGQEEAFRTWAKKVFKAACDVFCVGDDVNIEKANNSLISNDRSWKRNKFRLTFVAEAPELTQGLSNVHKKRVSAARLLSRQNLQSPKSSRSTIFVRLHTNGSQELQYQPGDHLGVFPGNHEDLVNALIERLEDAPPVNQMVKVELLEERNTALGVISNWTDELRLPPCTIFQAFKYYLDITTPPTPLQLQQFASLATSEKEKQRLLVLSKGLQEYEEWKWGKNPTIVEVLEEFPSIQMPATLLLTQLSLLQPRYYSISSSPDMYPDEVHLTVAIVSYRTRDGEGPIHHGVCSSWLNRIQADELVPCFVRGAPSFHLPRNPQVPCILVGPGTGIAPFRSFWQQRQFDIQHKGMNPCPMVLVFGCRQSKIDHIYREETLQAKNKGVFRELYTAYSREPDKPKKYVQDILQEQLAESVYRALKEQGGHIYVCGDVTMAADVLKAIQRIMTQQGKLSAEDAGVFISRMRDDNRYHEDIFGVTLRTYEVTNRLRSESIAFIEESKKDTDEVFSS

Cc1cc(N)nc2cc(-c3cccc(CN)c3)ccc12.Cl.Cl
Ki (Nitric oxide synthase 1 [1]): 55 nM
Ki (Nitric oxide synthase 1 [2]): 60 nM
Ki (Nitric oxide synthase 3): 52600 nM
Ki [3]: 29900 nM
Ki (Nitric oxide synthase 1 [4]): 416 nM
remaining at 1 h, 1.426 µM (in vitro [5]): 87%
remaining at 1 h, 1.426 µM (in vitro [6]): 67%
half-life at 1 h, 1.426 µM (in vitro [7]): > 1 h
CLint scaled at 1 h, 1.426 µM (in vitro [8]): 8 mL/min/kg

Source: ChEMBL document CHEMBL4342518, “First Contact: 7-Phenyl-2-Aminoquinolines, Potent and Selective Neuronal Nitric Oxide Synthase Inhibitors That Target an Isoform-Specific Aspartate” (J Med Chem, 2020)
